# Measurements as given in US20250177408A1, “INHIBITOR OF INTERACTION BETWEEN YAP/TAZ AND TEAD, PREPARATION THEREOF, PHARMACEUTICAL COMPOSITION THEREOF AND USE THEREOF” (ETERN BIOPHARMA (SHANGHAI) CO., LTD., priority 2022, published 2025).
# Like-named read-outs stand apart in the source and are kept apart here.
# Assays:
# MSTO-211H cells = test: Cell proliferation inhibition experiment (CellTiter-Glo); format: cell-based; details: 96 hours, read-out: Inhibitory activity of each compound on the proliferation of MSTO-211H cells (grades of IC50 values)
# How it was run: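 MSTO-211H cells (1500/well, RPMI1640 + 10% FBS) were plated overnight at 37° C, 5% CO2, then exposed in duplicate to 9 three-fold compound dilutions (DMSO ≤0.5% final) for 96 hours. Viability was read as CellTiter-Glo luminescence after 10 min at room temperature. IC50 was derived from inhibition of the CTG signal.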
# [1] = target: YAP-TEAD protein interaction (His-TEAD1 (209-426) protein, Bio-YAP peptide (60-100)) (Homo sapiens, UniProt P28347); test: YAP-TEAD protein interaction HTRF experiment; format: binding; details: His-TEAD1 (209-426) 10 nM, Bio-YAP peptide 50 nM, read-out: Activity of each compound in blocking YAP-TEAD protein interaction (grades of IC50 values)
# YAP-TEAD protein interaction (His-TEAD1 (209-426) protein, Bio-YAP peptide (60-100)), sequence (P28347 209-426): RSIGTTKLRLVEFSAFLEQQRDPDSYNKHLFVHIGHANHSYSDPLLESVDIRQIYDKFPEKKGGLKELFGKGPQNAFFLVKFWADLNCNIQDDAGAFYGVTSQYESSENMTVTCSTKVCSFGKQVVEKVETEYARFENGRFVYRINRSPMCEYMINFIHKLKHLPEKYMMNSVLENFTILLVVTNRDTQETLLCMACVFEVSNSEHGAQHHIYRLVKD
# How it was run: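 His-TEAD1 (209-426) at 10 nM final was preincubated 20 min at RT with compounds (10-point 3-fold dilutions, duplicates, 1% DMSO), then Bio-YAP peptide, 10 min. Anti-His-Eu cryptate/streptavidin-XL665 added for 1 h at RT; HTRF read at ex 320 nm, Em665/Em620 ratio ×10000, IC50 from % inhibition.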
IC50 [1] [nM],SMILES,IC50 (MSTO-211H cells; Homo sapiens) [nM],IC50 (MSTO-211H cells) [nM]
< 50,"CCC(=O)N1CCOc2c1cc(C(N)=O)c(-c1c(Cl)c(F)cc3c1C[C@](c1ccccc1)([C@@H]1CCCN1)O3)c2F (atropisomer, axis not shown) [Compound I-29, (S)-7-((S)-5-Chloro-6-fluoro-2-phenyl-2-((S)-pyrrolidin-2-yl)-2,3-dihydrobenzofuran-4-yl)-8-fluoro-4-propionyl-3,4-dihydro-2H-benzo[b][1,4]oxazine-6-carboxamide]",200 to 500,
< 50,"NC(=O)c1cc2c(c(F)c1-c1c(Cl)c(F)cc3c1C[C@](c1ccccc1)([C@@H]1CCCN1)O3)Oc1cnn(CC(F)F)c(=O)c1O2 (atropisomer, axis not shown) [Compound 121, (S)-8-((S)-5-Chloro-6-fluoro-2-phenyl-2-((S)-pyrrolidin-2-yl)-2,3-dihydrobenzofuran-4-yl)-9-fluoro-3-(2,2-difluoroethyl)-4-oxo-3,4-dihydrobenzo[5,6][1,4]dioxo[2,3-d]pyridazine-7-carboxamide]",200 to 500,
< 50,"NC(=O)c1cc2cn[nH]c2c(F)c1-c1c(Cl)c(F)cc2c1C[C@](c1ccccc1)([C@@H]1CCCN1)O2 (atropisomer, axis not shown) [Compound I-30, (S)-6-((S)-5-Chloro-6-fluoro-2-phenyl-2-((S)-pyrrolidin-2-yl)-2,3-dihydrobenzofuran-4-yl)-7-fluoro-1H-indazole-5-carboxamide]",200 to 500,
< 50,"CNC(=O)c1cc2c(c(F)c1-c1c(Cl)c(F)cc3c1C[C@](c1ccccc1)([C@@H]1CCCN1)O3)Oc1cnn(C)c(=O)c1O2 (atropisomer, axis not shown) [Compound 125, (S)-8-((S)-5-Chloro-6-fluoro-2-phenyl-2-((S)-pyrrolidin-2-yl)-2,3-dihydrobenzofuran-4-yl)-9-fluoro-N,3-dimethyl-4-oxo-3,4-dihydroxybenzo[5,6][1,4]dioxo[2,3-d]pyridazine-7-carboxamide]",< 200,
< 50,"NC(=O)c1cc2c(c(F)c1-c1c(Cl)c(F)cc3c1C[C@](c1ccccc1)([C@@H]1CCCN1)O3)OCc1n[nH]cc1-2 (atropisomer, axis not shown) [Compound 46, (S)-7-((S)-5-Chloro-6-fluoro-2-phenyl-2-((S)-pyrrolidin-2-yl)-2,3-dihydrobenzofuran-4-yl)-6-fluoro-2,4-dihydrochromeno[3,4-c]pyrazole-8-carboxamide]",< 200,
< 50,"NC(=O)c1cc2c(c(F)c1-c1c(Cl)c(F)cc3c1C[C@](c1ccccc1)([C@@H]1CCCN1)O3)Oc1cn[nH]c(=O)c1O2 (atropisomer, axis not shown) [Compound 108, (S)-8-((S)-5-Chloro-6-fluoro-2-phenyl-2-((S)-pyrrolidin-2-yl)-2,3-dihydrobenzofuran-4-yl)-9-fluoro-4-oxo-3,4-dihydrobenzo[5,6][1,4]dioxo [2,3-d]pyridazine-7-carboxamide]",500 to 5000,

# The next lines start with the compound.
SMILES,IC50 [1] [nM],IC50 (MSTO-211H cells; Homo sapiens) [nM],IC50 (MSTO-211H cells) [nM]
"CO[C@H]1CC[C@H](NC[C@@]2(c3ccccc3)Cc3c(cc(F)c(Cl)c3-c3c(C(N)=O)cc4c(c3F)OCc3nn(C)cc3-4)O2)CC1 (atropisomer, axis not shown) [Compound 78, (S)-7-((S)-5-Chloro-6-fluoro-2-((((1R,4S)-4-methoxycyclohexyl)amino)methyl)-2-phenyl-2,3-dihydrobenzofuran-4-yl)-6-fluoro-2-methyl-2,4-dihydrochromeno[3,4-c]pyrazole-8-carboxamide]",< 50,< 200,
"[2H]C1([2H])CC[C@]([2H])([C@@]2(c3ccccc3)Cc3c(cc(F)c(Cl)c3-c3c(C(=O)NC)cc4c(c3F)Oc3c(cnn(CC(F)F)c3=O)O4)O2)N1 (atropisomer, axis not shown) [Compound 156, (S)-8-((S)-5-Chloro-6-fluoro-2-phenyl-2-((S)-pyrrolidin-2-yl-2,5,5-d3)-2,3-dihydrobenzofuran-4-yl)-2-(2,2-difluoroethyl)-9-fluoro-N-methyl-1-oxo-1,2-dihydrobenzo[5,6][1,4]dioxo [2,3-d]pyridazine-7-carboxamide]",< 50,< 200,
"NC(=O)c1cc2c(c(F)c1-c1c(Cl)c(F)cc3c1C[C@](c1ccccc1)([C@@H]1CCCN1)O3)Oc1cnn(CCF)c(=O)c1O2 (atropisomer, axis not shown) [Compound 119, (S)-8-((S)-5-Chloro-6-fluoro-2-phenyl-2-((S)-pyrrolidin-2-yl)-2,3-dihydrobenzofuran-4-yl)-9-fluoro-3-(2-fluoroethyl)-4-oxo-3,4-dihydrobenzo[5,6][1,4]dioxo[2,3-d]pyridazine-7-carboxamide]",< 50,200 to 500,
"NC(=O)c1cc2c(c(F)c1-c1c(Cl)c(F)cc3c1C[C@](c1ccccc1)([C@@H]1CCCN1)O3)Oc1ncc(CO)nc1O2 (atropisomer, axis not shown) [Compound 102, (S)-8-((S)-5-Chloro-6-fluoro-2-phenyl-2-((S)-pyrrolidin-2-yl)-2,3-dihydrobenzofuran-4-yl)-9-fluoro-3-(hydroxymethyl)benzo[5,6] [1,4]dioxo [2,3-b]pyrazine-7-carboxamide]",< 50,< 200,
"CNC(=O)c1cc2c(c(F)c1-c1c(Cl)c(F)cc3c1C[C@](c1ccccc1)([C@@H]1CCCN1)O3)Oc1c(cnn(CC(F)F)c1=O)O2 (atropisomer, axis not shown) [Compound 141, (S)-8-((S)-5-Chloro-6-fluoro-2-phenyl-2-((S)-pyrrolidin-2-yl)-2,3-dihydrobenzofuran-4-yl)-2-(2,2-difluoroethyl)-9-fluoro-N-methyl-1-oxo-1,2-dihydrobenzo[5,6][1,4]dioxo[2,3-d]pyridazine-7-carboxamide]",< 50,< 200,
"NC(=O)c1cc2c(c(F)c1-c1c(Cl)c(F)cc3c1C[C@](c1ccccc1)([C@@H]1CCCN1)O3)Oc1cnn(CCC(F)(F)F)c(=O)c1O2 (atropisomer, axis not shown) [Compound 134, (S)-8-((S)-5-Chloro-6-fluoro-2-phenyl-2-((S)-pyrrolidin-2-yl)-2,3-dihydrobenzofuran-4-yl)-9-fluoro-3-(3,3,3-trifluoropropyl)-4-oxo-3,4-dihydrobenzo[5,6][1,4]dioxo[2,3-d]pyridazine-7-carboxamide]",< 50,500 to 5000,
"Cn1ccc2c(c1=O)Oc1cc(C(N)=O)c(-c3c(Cl)c(F)cc4c3C[C@](c3ccccc3)([C@@H]3CCCN3)O4)c(F)c1O2 (atropisomer, axis not shown) [Compound 136, (S)-7-((S)-5-Chloro-6-fluoro-2-phenyl-2-((S)-pyrrolidin-2-yl)-2,3-dihydrobenzofuran-4-yl)-6-fluoro-2-methyl-1-oxo-1,2-dihydrobenzo[5,6][1,4]dioxo[2,3-c]pyridine-8-carboxamide]",< 50,< 200,
"[2H]C1([2H])CC[C@]([2H])([C@@]2(c3ccccc3)Cc3c(cc(F)c(Cl)c3-c3c(C(=O)NC)cc4c(c3F)Oc3c(cnn(CCC(F)(F)F)c3=O)O4)O2)N1 (atropisomer, axis not shown) [Compound 159, (S)-8-((S)-5-Chloro-6-fluoro-2-phenyl-2-((S)-pyrrolidin-2-yl-2,5,5-d3)-2,3-dihydrobenzofuran-4-yl)-9-fluoro-N-methyl-1-oxo-2-(3,3,3-trifluoropropyl)-1,2-dihydroxybenzo [5,6][1,4]dioxo [2,3-d]pyridazine-7-carboxamide]",< 50,< 200,
"COCCn1ncc2c(c1=O)Oc1c(cc(C(N)=O)c(-c3c(Cl)c(F)cc4c3C[C@](c3ccccc3)([C@@H]3CCCN3)O4)c1F)O2 (atropisomer, axis not shown) [Compound 149, (R)-8-((S)-5-Chloro-6-fluoro-2-phenyl-2-((S)-pyrrolidin-2-yl)-2,3-dihydrobenzofuran-4-yl)-9-fluoro-2-(2-methoxyethyl)-1-oxo-1,2-dihydrobenzo[5,6][1,4]dioxa[2,3-d]pyridazine-7-carboxamide]",< 50,< 200,
"NC(=O)c1cc2c(c(F)c1-c1c(Cl)c(F)cc3c1C[C@](c1ccccc1)([C@@H]1CCCN1)O3)Oc1cnn(C3CC3)c(=O)c1O2 [Compound 112, (S)-8-((S)-5-Chloro-6-fluoro-2-phenyl-2-((S)-pyrrolidin-2-yl)-2,3-dihydrobenzofuran-4-yl)-3-cyclopropyl-9-fluoro-4-oxo-3,4-dihydrobenzo[5,6][1,4]dioxo[2,3-d]pyridazine-7-carboxamide]",< 50,,200 to 500
"[2H]C1([2H])CC[C@]([2H])([C@@]2(c3ccccc3)Cc3c(cc(F)c(Cl)c3-c3c(C(=O)NC)cc4c(c3F)Oc3c(cnn(CC(F)(F)F)c3=O)O4)O2)N1 (atropisomer, axis not shown) [Compound 157, (S)-8-((S)-5-Chloro-6-fluoro-2-phenyl-2-((S)-pyrrolidin-2-yl-2,5,5-d3)-2,3-dihydrobenzofuran-4-yl)-9-fluoro-N-methyl-1-oxo-2-(2,2,2-trifluoroethyl)-1,2-dihydroxybenzo[5,6][1,4] dioxo[2,3-d]pyridazine-7-carboxamide]",< 50,< 200,
